According to the NIST ThermoML archive (doi:10.1016/j.fluid.2007.10.011):
Numbers after ± are expanded uncertainties.

Experiments:
[1] = 298.2 K; 101.33 kPa; Liquid; Pycnometric method
[2] = refractive index (Na D-line) (dimensionless); conditions: 298.2 K; 101.33 kPa; Liquid; Standard Abbe refractometry

CCCCn1cc[n+](C)c1.COCCOCCOS(=O)(=O)[O-] [1-butyl-3-methylimidazolium 2-(2-methoxyethoxy)ethyl sulfate]
mass density [1]: 1170 ± 10 kg/m3 | refractive index [2]: 1.48 ± 0.001

CCCCn1cc[n+](C)c1.F[P-](F)(F)(F)(F)F [1-butyl-3-methylimidazolium hexafluorophosphate]
mass density [1]: 1380 ± 10 kg/m3 | refractive index [2]: 1.41 ± 0.001

CCCCn1cc[n+](C)c1.F[B-](F)(F)F [1-butyl-3-methylimidazolium tetrafluoroborate]
mass density [1]: 1200 ± 10 kg/m3 | refractive index [2]: 1.422 ± 0.001

CCn1cc[n+](C)c1.Cc1ccc(S(=O)(=O)[O-])cc1 [1-ethyl-3-methylimidazolium 4-methylbenzenesulfonate]
mass density [1]: 1210 ± 10 kg/m3 | refractive index [2]: 1.538 ± 0.001

CC(O)c1ccccc1 (stereo unspecified) [1-phenylethanol]
mass density [1]: 1010 ± 2 kg/m3 | refractive index [2]: 1.5225 ± 0.0008

CCC(=O)OC(C)c1ccccc1 (stereo unspecified) [1-phenylethyl propionate]
mass density [1]: 1007 ± 2 kg/m3 | refractive index [2]: 1.4865 ± 0.0008

CCC(=O)O [propanoic acid]
mass density [1]: 992 ± 1 kg/m3 | refractive index [2]: 1.382 ± 0.001

C=COC(=O)CC [vinyl propanoate]
mass density [1]: 919 ± 2 kg/m3 | refractive index [2]: 1.402 ± 0.001
